According to ChEMBL document CHEMBL5303573, “Mapping human microbiome drug metabolism by gut bacteria and their genes” (Nature, 2019):

Experiments:
[1] = The drug is tested on Eubacterium biforme strain: DSM3989 for biotransformation. The drug concentrations were measured before and after a 12-h incubation by liquid-chromatography-coupled mass spectrometry (LC–MS); conditions: holdemanella biformis, 2 µM
[2] = victivallis vadensis, 12 h, 2 µM
[3] = The drug is tested on Proteus penneri strain: ATCC35198 for biotransformation. The drug concentrations were measured before and after a 12-h incubation by liquid-chromatography-coupled mass spectrometry (LC–MS); conditions: 2 µM
[4] = The drug is tested on Salmonella typhimurium strain: LT2 for biotransformation. The drug concentrations were measured before and after a 12-h incubation by liquid-chromatography-coupled mass spectrometry (LC–MS); conditions: salmonella enterica subsp. enterica, 2 µM
[5] = segatella copri, 12 h, 2 µM
[6] = The drug is tested on Providencia alcalifaciens strain: DSM30120 for biotransformation. The drug concentrations were measured before and after a 12-h incubation by liquid-chromatography-coupled mass spectrometry (LC–MS); conditions: 2 µM
[7] = The drug is tested on Bacteroides fragilis strain: T(B)9 for biotransformation. The drug concentrations were measured before and after a 12-h incubation by liquid-chromatography-coupled mass spectrometry (LC–MS); conditions: 2 µM
[8] = target: T1, Pyridine nucleotide-disulfide oxidoreductase (Collinsella aerofaciens, UniProt A4EBM5); test: (§1) The drug is tested on Collinsella aerofaciens strain: ATCC25986 for biotransformation. The drug concentrations were measured before and after a 12-h incubation by liquid-chromatography-coupled mass spectrometry (LC–MS); format: ADME; parameters: dose 2 uM; conditions: 2 µM
T1 sequence (A4EBM5 whole entry): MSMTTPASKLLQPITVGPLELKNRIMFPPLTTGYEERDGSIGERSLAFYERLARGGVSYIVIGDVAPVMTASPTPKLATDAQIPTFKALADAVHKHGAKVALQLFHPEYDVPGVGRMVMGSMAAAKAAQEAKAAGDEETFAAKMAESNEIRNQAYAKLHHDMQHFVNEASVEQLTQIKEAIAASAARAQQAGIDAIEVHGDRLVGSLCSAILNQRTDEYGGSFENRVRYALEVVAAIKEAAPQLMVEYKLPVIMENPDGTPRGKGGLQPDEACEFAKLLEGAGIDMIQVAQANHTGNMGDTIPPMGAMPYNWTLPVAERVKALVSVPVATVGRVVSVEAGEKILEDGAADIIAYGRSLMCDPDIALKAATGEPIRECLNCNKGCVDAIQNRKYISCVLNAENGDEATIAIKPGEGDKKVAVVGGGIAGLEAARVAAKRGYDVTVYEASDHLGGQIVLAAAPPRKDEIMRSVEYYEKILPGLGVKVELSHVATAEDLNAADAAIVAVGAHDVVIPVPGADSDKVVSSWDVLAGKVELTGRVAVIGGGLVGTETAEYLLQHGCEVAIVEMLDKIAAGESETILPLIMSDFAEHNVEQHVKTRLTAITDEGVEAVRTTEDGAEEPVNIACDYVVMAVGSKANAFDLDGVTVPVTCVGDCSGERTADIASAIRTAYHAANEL

Flavodoxin = target: T2, Flavodoxin (Collinsella aerofaciens, UniProt A4ED08); test: as §1; format: ADME; parameters: dose 2 uM; conditions: 2 µM
T2 sequence (A4ED08 whole entry): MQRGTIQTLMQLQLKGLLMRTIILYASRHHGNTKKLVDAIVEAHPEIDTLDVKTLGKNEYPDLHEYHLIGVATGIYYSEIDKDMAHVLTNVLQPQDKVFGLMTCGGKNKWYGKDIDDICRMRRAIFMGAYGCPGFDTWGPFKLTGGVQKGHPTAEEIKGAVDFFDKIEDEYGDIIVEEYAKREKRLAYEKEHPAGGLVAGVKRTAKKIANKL

GDSL-like protein [9] = target: T3, GDSL-like protein (Collinsella aerofaciens, UniProt A4E8S4); test: as §1; format: ADME; parameters: dose 2 uM; conditions: 2 µM
T3 sequence (A4E8S4 whole entry): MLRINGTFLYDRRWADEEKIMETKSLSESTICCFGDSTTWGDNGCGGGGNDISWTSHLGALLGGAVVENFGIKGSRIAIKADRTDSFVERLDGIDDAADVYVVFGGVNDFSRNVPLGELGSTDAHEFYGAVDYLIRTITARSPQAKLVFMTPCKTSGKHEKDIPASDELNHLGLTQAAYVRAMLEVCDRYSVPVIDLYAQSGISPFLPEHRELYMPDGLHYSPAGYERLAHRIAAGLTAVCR

GDSL-like protein [10] = target: T4, GDSL-like protein (Collinsella aerofaciens, UniProt A4E7D0); test: as §1; format: ADME; parameters: dose 2 uM; conditions: 2 µM
T4 sequence (A4E7D0 whole entry): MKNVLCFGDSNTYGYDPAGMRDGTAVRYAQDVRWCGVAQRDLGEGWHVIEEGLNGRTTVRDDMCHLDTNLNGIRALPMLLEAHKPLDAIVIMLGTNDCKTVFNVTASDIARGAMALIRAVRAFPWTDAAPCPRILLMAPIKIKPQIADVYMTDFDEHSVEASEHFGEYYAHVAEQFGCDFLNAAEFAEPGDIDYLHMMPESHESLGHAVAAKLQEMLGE

Diguanylate cyclase = target: T5, Diguanylate cyclase (Collinsella aerofaciens, UniProt A4EB91); test: as §1; format: ADME; parameters: dose 2 uM; conditions: 2 µM
T5 sequence (A4EB91 whole entry): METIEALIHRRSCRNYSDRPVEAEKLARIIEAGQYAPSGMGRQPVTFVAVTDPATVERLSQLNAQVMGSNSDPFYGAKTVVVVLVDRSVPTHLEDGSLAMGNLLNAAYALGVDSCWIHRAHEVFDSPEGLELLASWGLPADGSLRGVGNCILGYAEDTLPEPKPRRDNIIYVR

[11] = The drug is tested on Eubacterium rectale strain: ATCC33656 for biotransformation. The drug concentrations were measured before and after a 12-h incubation by liquid-chromatography-coupled mass spectrometry (LC–MS); conditions: agathobacter rectalis, 2 µM
[12] = The drug is tested on Eggerthella lenta strain: ATCC25559 for biotransformation. The drug concentrations were measured before and after a 12-h incubation by liquid-chromatography-coupled mass spectrometry (LC–MS); conditions: 2 µM
[13] = The drug is tested on Escherichia coli strain: BW25113 for biotransformation. The drug concentrations were measured before and after a 12-h incubation by liquid-chromatography-coupled mass spectrometry (LC–MS); conditions: 2 µM
[14] = The drug is tested on Bacteroides dorei strain: DSM17855 for biotransformation. The drug concentrations were measured before and after a 12-h incubation by liquid-chromatography-coupled mass spectrometry (LC–MS); conditions: phocaeicola dorei, 2 µM
[15] = The drug is tested on Clostridium hathewayi strain: DSM13479 for biotransformation. The drug concentrations were measured before and after a 12-h incubation by liquid-chromatography-coupled mass spectrometry (LC–MS); conditions: hungatella hathewayi, 2 µM
[16] = clostridioides difficile, 12 h, 2 µM
Description: The drug is tested on Clostridium difficile strain: 120 for biotransformation. The drug concentrations were measured before and after a 12-h incubation by liquid-chromatography-coupled mass spectrometry (LC–MS)

[17] = The drug is tested on Clostridium spiroforme strain: DSM1552 for biotransformation. The drug concentrations were measured before and after a 12-h incubation by liquid-chromatography-coupled mass spectrometry (LC–MS); conditions: thomasclavelia spiroformis, 2 µM
[18] = The drug is tested on Clostridium ramosum strain: DSM1402 for biotransformation. The drug concentrations were measured before and after a 12-h incubation by liquid-chromatography-coupled mass spectrometry (LC–MS); conditions: thomasclavelia ramosa, 2 µM

| Structure (SMILES) | Bacterial Biotransformation [1] | Bacterial Biotransformation [2] | Bacterial Biotransformation [3] | Bacterial Biotransformation [4] | Bacterial Biotransformation [5] | Bacterial Biotransformation [6] | Bacterial Biotransformation [7] | Bacterial Biotransformation [8] | Bacterial Biotransformation (Flavodoxin) | Bacterial Biotransformation (GDSL-like protein [9]) | Bacterial Biotransformation (GDSL-like protein [10]) | Bacterial Biotransformation (Diguanylate cyclase) | Bacterial Biotransformation [11] | Bacterial Biotransformation [12] | Bacterial Biotransformation [13] | Bacterial Biotransformation [14] | Bacterial Biotransformation [15] | Bacterial Biotransformation [16] | Bacterial Biotransformation [17] | Bacterial Biotransformation [18] |
| --- | --- | --- | --- | --- | --- | --- | --- | --- | --- | --- | --- | --- | --- | --- | --- | --- | --- | --- | --- | --- |
| COc1ccc(CCN(C)CCCC(C#N)(c2ccc(OC)c(OC)c2)C(C)C)cc1OC (stereo not drawn) | Compound NOT metabolized | Compound NOT metabolized | Compound NOT metabolized | Compound metabolized | Compound metabolized | Compound NOT metabolized | Compound NOT metabolized |  |  |  |  |  |  |  |  |  |  |  |  |  |
| C[C@]12CCC(=O)C=C1[C@@H]1C[C@@H]1[C@H]1[C@@H]3[C@@H]4C[C@@H]4[C@@]4(CCC(=O)O4)[C@@]3(C)CC[C@@H]12 [DROSPIRENONE] |  | Compound NOT metabolized |  |  | Compound NOT metabolized |  |  | Compound NOT metabolized | Compound NOT metabolized | Compound NOT metabolized | Compound NOT metabolized | Compound NOT metabolized | Compound NOT metabolized | Compound NOT metabolized | Compound NOT metabolized | Compound metabolized |  |  |  |  |
| Cc1nc(-c2ccc(OCC(C)C)c(C#N)c2)sc1C(=O)O [FEBUXOSTAT] | Compound NOT metabolized |  |  | Compound NOT metabolized |  | Compound NOT metabolized | Compound metabolized |  |  |  |  |  | Compound NOT metabolized |  | Compound NOT metabolized | Compound metabolized | Compound NOT metabolized | Compound NOT metabolized | Compound NOT metabolized |  |
| N#Cc1ccc2c(c1)N(CCCN1CCC(O)CC1)c1ccccc1S2 [PERICIAZINE] |  | Compound NOT metabolized |  |  | Compound NOT metabolized |  |  | Compound NOT metabolized | Compound NOT metabolized | Compound NOT metabolized | Compound NOT metabolized | Compound NOT metabolized | Compound NOT metabolized | Compound NOT metabolized | Compound NOT metabolized | Compound metabolized |  |  |  |  |

Results, then the compound that gave them:

| Bacterial Biotransformation [1] | Bacterial Biotransformation [2] | Bacterial Biotransformation [3] | Bacterial Biotransformation [4] | Bacterial Biotransformation [5] | Bacterial Biotransformation [6] | Bacterial Biotransformation [7] | Bacterial Biotransformation [8] | Bacterial Biotransformation (Flavodoxin) | Bacterial Biotransformation (GDSL-like protein [9]) | Bacterial Biotransformation (GDSL-like protein [10]) | Bacterial Biotransformation (Diguanylate cyclase) | Bacterial Biotransformation [11] | Bacterial Biotransformation [12] | Bacterial Biotransformation [13] | Bacterial Biotransformation [14] | Bacterial Biotransformation [15] | Bacterial Biotransformation [16] | Bacterial Biotransformation [17] | Bacterial Biotransformation [18] | Structure (SMILES) |
| --- | --- | --- | --- | --- | --- | --- | --- | --- | --- | --- | --- | --- | --- | --- | --- | --- | --- | --- | --- | --- |
| Compound NOT metabolized | Compound NOT metabolized | Compound NOT metabolized | Compound NOT metabolized | Compound NOT metabolized | Compound NOT metabolized |  |  |  |  |  |  | Compound NOT metabolized |  | Compound NOT metabolized | Compound NOT metabolized | Compound NOT metabolized |  |  |  | OCCOCCN1CCN(C2=Nc3ccccc3Sc3ccccc32)CC1 [QUETIAPINE] |
| Compound NOT metabolized | Compound NOT metabolized | Compound NOT metabolized | Compound NOT metabolized | Compound NOT metabolized | Compound NOT metabolized | Compound metabolized |  |  |  |  |  | Compound NOT metabolized | Compound NOT metabolized |  | Compound metabolized | Compound NOT metabolized | Compound NOT metabolized | Compound NOT metabolized | Compound NOT metabolized | Nc1nc2ccc(OC(F)(F)F)cc2s1 [RILUZOLE] |
| Compound NOT metabolized | Compound NOT metabolized | Compound NOT metabolized |  | Compound NOT metabolized |  | Compound NOT metabolized |  |  |  |  |  | Compound NOT metabolized |  | Compound NOT metabolized | Compound NOT metabolized | Compound NOT metabolized |  | Compound NOT metabolized | Compound NOT metabolized | CN1C(C(=O)Nc2ccccn2)=C(O)c2sccc2S1(=O)=O [TENOXICAM] |
| Compound NOT metabolized |  | Compound NOT metabolized | Compound NOT metabolized | Compound metabolized | Compound NOT metabolized | Compound metabolized |  |  |  |  |  |  |  |  | Compound metabolized | Compound NOT metabolized |  | Compound metabolized |  | N#Cc1ccc2[nH]cc(CCCCN3CCN(c4ccc5oc(C(N)=O)cc5c4)CC3)c2c1 [VILAZODONE] |
